Our source for the Ki values is US20060194837A1, “Tetrahydroisoquinoline compounds” (priority 2004, published 2006).

The structures appear in SMILES notation.

The Ki is the dissociation constant of the complex between target and ligand, obtained from inhibition or displacement.

The target of one experiment is T1, human H3 receptor (Homo sapiens, UniProt Q9Y5N1).
T1 construct: expressed in transfected cells
The experiment is described as follows: H3 receptor binding (N-[3H]-α-methylhistamine displacement). The note with it: membranes of SK-N-MC cells expressing cloned human H3 receptor, 0.8 nM N-[3H]-α-methylhistamine, 60 min at 25° C.

For a further experiment, the target named is T2, Rat SERT (Rattus norvegicus, UniProt P31652).
T2 construct: A rat brain without cerebellum (Zivic Laboratories, Inc.—Pittsburgh, Pa.) was homogenized; tissue Zivic Laboratories, Inc; host or cells: rat brain without cerebellum, membranes
Nature of the experiment: Rat brain SERT binding ([3H]-citalopram displacement). The note with it: rat brain membranes without cerebellum, 0.6 nM [3H]-citalopram, 60 min at 25° C.; read-out: Rat SERT Ki. Here is the method:
The supernatant was removed and re-centrifuged at 15,000 rpm for 30 min. […] Membranes were incubated with 0.6 nM [^3H]-Citalopram plus/minus test compounds for 60 min at 25° C. and harvested by rapid filtration over GF/C glass fiber filters (pretreated with 0.3% polyethylenimine) followed by four washes with ice-cold buffer.

T2 sequence (P31652 whole entry): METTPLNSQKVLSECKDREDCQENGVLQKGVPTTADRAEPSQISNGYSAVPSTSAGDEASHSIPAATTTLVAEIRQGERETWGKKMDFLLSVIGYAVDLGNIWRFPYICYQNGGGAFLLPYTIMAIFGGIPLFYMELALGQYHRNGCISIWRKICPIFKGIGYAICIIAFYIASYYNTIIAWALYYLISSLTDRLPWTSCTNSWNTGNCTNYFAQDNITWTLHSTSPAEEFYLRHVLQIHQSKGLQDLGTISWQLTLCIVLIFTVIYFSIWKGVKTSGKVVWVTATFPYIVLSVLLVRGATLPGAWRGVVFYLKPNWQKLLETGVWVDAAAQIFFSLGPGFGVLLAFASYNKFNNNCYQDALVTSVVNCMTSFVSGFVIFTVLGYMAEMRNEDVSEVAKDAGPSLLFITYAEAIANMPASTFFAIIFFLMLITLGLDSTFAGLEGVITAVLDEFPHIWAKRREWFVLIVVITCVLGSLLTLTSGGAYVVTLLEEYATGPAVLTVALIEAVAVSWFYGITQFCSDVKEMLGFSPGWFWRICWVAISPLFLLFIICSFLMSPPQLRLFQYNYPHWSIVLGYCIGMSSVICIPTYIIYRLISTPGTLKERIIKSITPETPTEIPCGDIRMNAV
T1 sequence (Q9Y5N1 whole entry): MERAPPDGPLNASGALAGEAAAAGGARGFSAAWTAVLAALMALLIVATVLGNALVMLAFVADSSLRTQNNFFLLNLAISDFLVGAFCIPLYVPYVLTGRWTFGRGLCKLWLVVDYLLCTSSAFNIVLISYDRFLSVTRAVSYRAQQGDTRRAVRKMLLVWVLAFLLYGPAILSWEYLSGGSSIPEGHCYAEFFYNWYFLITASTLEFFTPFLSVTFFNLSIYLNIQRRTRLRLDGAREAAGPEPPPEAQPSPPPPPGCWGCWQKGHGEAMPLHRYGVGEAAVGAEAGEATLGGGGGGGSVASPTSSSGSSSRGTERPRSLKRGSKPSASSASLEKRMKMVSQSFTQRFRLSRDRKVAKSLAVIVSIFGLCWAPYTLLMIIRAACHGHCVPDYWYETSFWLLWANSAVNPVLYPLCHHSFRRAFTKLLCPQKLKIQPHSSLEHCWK

Consider `CN1Cc2cc(OCCCN3CCC(F)CC3)ccc2C(c2ccc(Br)nc2)C1` (centres unmarked) [Example 186, 4-(6-Bromo-pyridin-3-yl)-7-[3-(4-fluoro-piperidin-1-yl)-propoxy]-2-methyl-1,2,3,4-tetrahydro-isoquinoline], for which the Ki at human H3 receptor was 6 nM; on Rat SERT, 10 nM.

For `CSc1ccc(C2CN(C)Cc3cc(OCCCN4CCC(F)CC4)ccc32)cn1` (centres unmarked) [Example 187, 7-[3-(4-Fluoro-piperidin-1-yl)-propoxy]-2-methyl-4-(6-methylsulfanyl-pyridin-3-yl)-1,2,3,4-tetrahydro-isoquinoline], the results for the Ki at human H3 receptor and on Rat SERT were 5 nM and 3 nM, respectively.

Take `CN1Cc2cc(OCCCN3CCC(F)CC3)ccc2C(c2ccc(N(C)C)nc2)C1` (centres unmarked) [Example 188, (5-{7-[3-(4-Fluoro-piperidin-1-yl)-propoxy]-2-methyl-1,2,3,4-tetrahydro-isoquinolin-4-yl}-pyridin-2-yl)-dimethyl-amine]: the Ki at human H3 receptor came to 22 nM; at Rat SERT, 37 nM.

On to `CN1Cc2cc(OCCCN3CCC(F)CC3)ccc2C(c2ccc(C#C[Si](C)(C)C)nc2)C1` (centres unmarked) [Example 189, 7-[3-(4-Fluoro-piperidin-1-yl)-propoxy]-2-methyl-4-(6-trimethylsilanylethynyl-pyridin-3-yl)-1,2,3,4-tetrahydro-isoquinoline], for which the Ki was 12 nM at human H3 receptor and 108 nM on Rat SERT.

With `C#Cc1ccc(C2CN(C)Cc3cc(OCCCN4CCC(F)CC4)ccc32)cn1` (centres unmarked) [Example 190, 4-(6-Ethynyl-pyridin-3-yl)-7-[3-(4-fluoro-piperidin-1-yl)-propoxy]-2-methyl-1,2,3,4-tetrahydro-isoquinoline], the inhibition constant Ki on human H3 receptor amounted to 29 nM; at Rat SERT it was 119 nM.

As for `CN1Cc2cc(OCCCN3CCC(F)CC3)ccc2C(c2ccc(Sc3ccccc3)nc2)C1` (centres unmarked) [Example 191, 7-[3-(4-Fluoro-piperidin-1-yl)-propoxy]-2-methyl-4-(6-phenylsulfanyl-pyridin-3-yl)-1,2,3,4-tetrahydro-isoquinoline], the figures for the Ki on human H3 receptor and at Rat SERT were 26 nM and 69 nM, respectively.

Consider `CN1Cc2cc(OCCCN3CCC(F)CC3)ccc2C(c2ccc(-n3ccnc3)nc2)C1` (centres unmarked) [Example 192, 7-[3-(4-Fluoro-piperidin-1-yl)-propoxy]-4-(6-imidazol-1-yl-pyridin-3-yl)-2-methyl-1,2,3,4-tetrahydro-isoquinoline], for which the Ki on human H3 receptor was found to be 3 nM; at Rat SERT, 9 nM.

As to `COc1ccc(C2CN(C)Cc3cc(OCCCN4CCC(F)CC4)ccc32)cn1` (centres unmarked) [Example 193, 7-[3-(4-Fluoro-piperidin-1-yl)-propoxy]-4-(6-methoxy-pyridin-3-yl)-2-methyl-1,2,3,4-tetrahydro-isoquinoline], the results for the Ki on human H3 receptor and on Rat SERT were 3 nM and 5 nM, respectively.

Regarding `CN1Cc2cc(OCCCN3CCC(F)CC3)ccc2C(c2ccc(-n3cccn3)nc2)C1` (centres unmarked) [Example 194, 7-[3-(4-Fluoro-piperidin-1-yl)-propoxy]-2-methyl-4-(6-pyrazol-1-yl-pyridin-3-yl)-1,2,3,4-tetrahydro-isoquinoline], the results for the Ki on human H3 receptor and at Rat SERT were 1 nM and 7 nM, respectively.

Regarding `CN1Cc2cc(OCCCN3CCC(F)CC3)ccc2C(c2ccc(Sc3ncccn3)nc2)C1` (centres unmarked) [Example 196, 7-[3-(4-Fluoro-piperidin-1-yl)-propoxy]-2-methyl-4-[6-(pyrimidin-2-ylsulfanyl)-pyridin-3-yl]-1,2,3,4-tetrahydro-isoquinoline], the figures for the Ki on human H3 receptor and on Rat SERT were 4 nM and 2000 nM, respectively.

In the case of `COc1ccc(C2CN(C)Cc3cc(OCCCN4CCN(C)CC4)ccc32)cc1` (centres unmarked) [Example 197, 4-(4-Methoxy-phenyl)-2-methyl-7-[3-(4-methyl-piperazin-1-yl)-propoxy]-1,2,3,4-tetrahydro-isoquinoline], the Ki at human H3 receptor worked out at 15 nM; at Rat SERT it was 5 nM.

Regarding `COc1ccc(C2CN(C)Cc3cc(OCCCN4CCN(c5nccs5)CC4)ccc32)cc1` (centres unmarked) [Example 200, 4-(4-Methoxy-phenyl)-2-methyl-7-[3-(4-thiazol-2-yl-piperazin-1-yl)-propoxy]-1,2,3,4-tetrahydro-isoquinoline], the Ki at human H3 receptor came out at 227 nM; on Rat SERT, 3 nM.

`COc1ccc(C2CN(C)Cc3cc(OCCCN4CCN(Cc5cccs5)CC4)ccc32)cc1` (centres unmarked) [Example 201, 4-(4-Methoxy-phenyl)-2-methyl-7-[3-(4-thiophen-2-ylmethyl-piperazin-1-yl)-propoxy]-1,2,3,4-tetrahydro-isoquinoline]: the Ki at human H3 receptor is 134 nM; at Rat SERT, 4 nM.

For the compound `COc1ccc(C2CN(C)Cc3cc(OCCCN4CCN(CCO)CC4)ccc32)cc1` (centres unmarked) [Example 202, 2-(4-{3-[4-(4-Methoxy-phenyl)-2-methyl-1,2,3,4-tetrahydro-isoquinolin-7-yloxy]-propyl}-piperazin-1-yl)-ethanol], the inhibition constant (Ki) is 43 nM on human H3 receptor and 3 nM on Rat SERT.

In the case of `COc1ccc(C2CN(C)Cc3cc(OCCCN4CCN(c5ccccc5O)CC4)ccc32)cc1` (centres unmarked) [Example 203, 2-(4-{3-[4-(4-Methoxy-phenyl)-2-methyl-1,2,3,4-tetrahydro-isoquinolin-7-yloxy]-propyl}-piperazin-1-yl)-phenol], the Ki stood at 504 nM on human H3 receptor and 8 nM at Rat SERT.

With `COc1ccc(C2CN(C)Cc3cc(OCCCN4CCN(c5ccc(C(F)(F)F)cc5)CC4)ccc32)cc1` (centres unmarked) [Example 205, 4-(4-Methoxy-phenyl)-2-methyl-7-{3-[4-(4-trifluoromethyl-phenyl)-piperazin-1-yl]-propoxy}-1,2,3,4-tetrahydro-isoquinoline], the inhibitory constant (Ki) on human H3 receptor is 2000 nM; on Rat SERT, 44 nM.

Consider `C=CCN1CCN(CCCOc2ccc3c(c2)CN(C)CC3c2ccc(OC)cc2)CC1` (centres unmarked) [Example 206, 7-[3-(4-Allyl-piperazin-1-yl)-propoxy]-4-(4-methoxy-phenyl)-2-methyl-1,2,3,4-tetrahydro-isoquinoline], for which the Ki at human H3 receptor worked out at 37 nM; on Rat SERT it was 3 nM.

In the case of `COc1ccc(C2CN(C)Cc3cc(OCCCN4CCN(CC5OCCO5)CC4)ccc32)cc1` (centres unmarked) [Example 207, 7-[3-(4-[1,3]-Dioxolan-2-ylmethyl-piperazin-1-yl)-propoxy]-4-(4-methoxy-phenyl)-2-methyl-1,2,3,4-tetrahydro-isoquinoline], the Ki came out at 78 nM on human H3 receptor and 15 nM at Rat SERT.

Regarding `COc1ccc(C2CN(C)Cc3cc(OCCCN4CCN(c5ccc(C#N)cc5)CC4)ccc32)cc1` (centres unmarked) [Example 208, 4-(4-{3-[4-(4-Methoxy-phenyl)-2-methyl-1,2,3,4-tetrahydro-isoquinolin-7-yloxy]-propyl}-piperazin-1-yl)-benzonitrile], the Ki worked out at 137 nM at human H3 receptor and 4 nM on Rat SERT.

With `COCCN1CCN(CCCOc2ccc3c(c2)CN(C)CC3c2ccc(OC)cc2)CC1` (centres unmarked) [Example 209, 7-{3-[4-(2-Methoxy-ethyl)-piperazin-1-yl]-propoxy}-4-(4-methoxy-phenyl)-2-methyl-1,2,3,4-tetrahydro-isoquinoline], the figures for the Ki on human H3 receptor and at Rat SERT were 176 nM and 12 nM, respectively.

As for `COc1ccc(C2CN(C)Cc3cc(OCCCN4CCN(CC5CCCO5)CC4)ccc32)cc1` (centres unmarked) [Example 210, 4-(4-Methoxy-phenyl)-2-methyl-7-{3-[4-(tetrahydro-furan-2-ylmethyl)-piperazin-1-yl]-propoxy}-1,2,3,4-tetrahydro-isoquinoline], the values for the Ki at human H3 receptor and on Rat SERT were 99 nM and 10 nM, respectively.

For `COc1ccc(C2CN(C)Cc3cc(OCCCN4CCN(C(=O)OC(C)(C)C)CC4)ccc32)cc1` (centres unmarked) [Example 211, 4-{3-[4-(4-Methoxy-phenyl)-2-methyl-1,2,3,4-tetrahydro-isoquinolin-7-yloxy]-propyl}-piperazine-1-carboxylic acid tert-butyl ester], the inhibitory constant (Ki) came to 823 nM on human H3 receptor and 27 nM on Rat SERT.

`COc1ccc(C2CN(C)Cc3cc(OCCCN4CCN(C5CC5)CC4)ccc32)cc1` (centres unmarked) [Example 212, 7-[3-(4-Cyclopropyl-piperazin-1-yl)-propoxy]-4-(4-methoxy-phenyl)-2-methyl-1,2,3,4-tetrahydro-isoquinoline]: the Ki at human H3 receptor amounted to 43 nM; on Rat SERT it was 9 nM.

Consider `CN1Cc2cc(OCCCN3CCC(F)CC3)ccc2C(c2ccc(SC(F)(F)F)cc2)C1` (centres unmarked) [Example 217, 7-[3-(4-Fluoro-piperidin-1-yl)-propoxy]-2-methyl-4-(4-trifluoromethylsulfanyl-phenyl)-1,2,3,4-tetrahydro-isoquinoline], for which the figures for the inhibition constant (Ki) at human H3 receptor and on Rat SERT were 42 nM and 58 nM, respectively.

In the case of `CN1Cc2cc(OCCCN3CCOCC3)ccc2C(c2ccc(SC(F)(F)F)cc2)C1` (centres unmarked) [Example 218, 2-Methyl-7-(3-morpholin-4-yl-propoxy)-4-(4-trifluoromethylsulfanyl-phenyl)-1,2,3,4-tetrahydro-isoquinoline], the results for the inhibition constant Ki on human H3 receptor and at Rat SERT were 38 nM and 36 nM, respectively.

For `C[C@H]1COCCN1CCCOc1ccc2c(c1)CN(C)CC2c1ccc(SC(F)(F)F)cc1` (stereo partly drawn) [Example 219, 2-Methyl-7-[3-(3S-methyl-morpholin-4-yl)-propoxy]-4-(4-trifluoromethylsulfanyl-phenyl)-1,2,3,4-tetrahydro-isoquinoline], the Ki at human H3 receptor is 33 nM; at Rat SERT, 39 nM.

Consider `COc1ccc(C2CN(C)Cc3cc(OCCCN4CCOC[C@@H]4C)ccc32)cc1F` (stereo partly drawn) [Example 221, 4-(3-Fluoro-4-methoxy-phenyl)-2-methyl-7-[3-(3S-methyl-morpholin-4-yl)-propoxy]-1,2,3,4-tetrahydro-isoquinoline], for which the Ki at human H3 receptor was found to be 9 nM; at Rat SERT, 11 nM.

Regarding `COc1ccc(C2CN(C)Cc3cc(OCCCNC4CCOCC4)ccc32)cc1` (centres unmarked) [Example 223, {3-[4-(4-Methoxy-phenyl)-2-methyl-1,2,3,4-tetrahydro-isoquinolin-7-yloxy]-propyl}-(tetrahydro-pyran-4-yl)-amine], the Ki on human H3 receptor came out at 59 nM; at Rat SERT it was 5 nM.
